{"source": "ChEMBL document CHEMBL3632589", "about": "“Investigation of 7-benzylidenenaltrexone derivatives as a novel structural antitrichomonal lead compound” (2015)", "data": [{"system": "Trichomonas vaginalis", "experiment": "Antitrichomonal activity against Trichomonas vaginalis after 48 hrs by invert microscope analysis", "type": "functional", "units": {"MIC": "µM"}, "values": [{"smiles": "O=C1/C(=C/c2ccc(F)cc2)C[C@@]2(O)[C@H]3Cc4ccc(O)c5c4[C@@]2(CCN3CC2CC2)[C@H]1O5", "MIC": 40}, {"smiles": "COc1ccc(/C=C2\\C[C@@]3(O)[C@H]4Cc5ccc(O)c6c5[C@@]3(CCN4CC3CC3)[C@@H](O6)C2=O)cc1", "MIC": 20}, {"smiles": "CC1(C)SSC(C)(C)[C@@H](NC(=O)[C@@H](N)Cc2ccc(O)cc2)C(=O)NCC(=O)N[C@@H](Cc2ccccc2)C(=O)N[C@H]1C(=O)O", "MIC": "> 320"}, {"smiles": "CN(C)c1ccc(/C=C2\\C[C@@]3(O)[C@H]4Cc5ccc(O)c6c5[C@@]3(CCN4CC3CC3)[C@@H](O6)C2=O)cc1", "MIC": 20}, {"smiles": "O=C1/C(=C/c2ccccc2)C[C@@]2(O)[C@H]3Cc4ccc(O)c5c4[C@@]2(CCN3CC2CC2)[C@H]1O5", "note": "[BNTX]", "MIC": 40}, {"smiles": "CC(C)[C@H](NC(=O)[C@H](CCC(=O)O)NC(=O)[C@H](Cc1ccccc1)NC(=O)[C@@H](C)NC(=O)[C@@H](N)Cc1ccc(O)cc1)C(=O)N[C@H](C(=O)NCC(N)=O)C(C)C", "note": "[DELTORPHIN II]", "MIC": "> 320"}, {"smiles": "Cc1ncc([N+](=O)[O-])n1CCO", "note": "[METRONIDAZOLE]", "MIC": 5}, {"smiles": "Oc1ccc2c3c1O[C@H]1c4[nH]c5ccccc5c4C[C@@]4(O)[C@@H](C2)N(CC2CC2)CC[C@]314", "note": "[NALTRINDOLE]", "MIC": 80}, {"smiles": "C=CCN1C[C@H](C)N([C@H](c2ccc(C(=O)N(CC)CC)cc2)c2cccc(OC)c2)C[C@H]1C", "note": "[SNC-80]", "MIC": "> 320"}]}]}
